Reference: patent US8951563B2, “Antibiotic drug delivery and potentiation” (Technion Research & Development Foundation Limited, priority 2009, dated 2015)

Key:
Assay type in all cases: cell-based
E. coli U-16329 = assay: Antibiotic MIC / chemo-sensitization checkerboard with OAK, E. coli U-16329; conditions: for MIC: Escherichia coli, U16329, OAK: None
Procedure: (§1) Bacteria were grown overnight in LB growth medium and diluted 10,000-fold in same medium.
(§2) Inhibition of proliferation was determined by optical density measurements (620 nm) after incubation overnight at 37° C.
(§3) Synergistic effect of the combinations was assessed by determination of the fractional inhibitory concentration (FIC) where FIC=(MIC OAK in combination with antibiotic)/(MIC OAK alone)+(MIC antibiotic in combination)/(MIC antibiotic alone). Synergy was determined for FIC 0.5.

E. coli U-16327 = assay: Antibiotic MIC / chemo-sensitization checkerboard with OAK, E. coli U-16327; conditions: for MIC: Escherichia coli, U16327, OAK: None
Procedure: as §1, §2, §3

[1] = test system: E. coli AG100A, ΔacrAB (efflux−); conditions: sub-MIC C12K-7α8
Procedure: as §1, §3

[2] = test system: E. coli AB301, wild type (efflux+); assay: FIC index with sub-MIC OAK, E. coli AB301; conditions: sub-MIC C12K-7α8
Procedure: as §1, §3

[3] = test system: E. coli N281, ribosomal mutation; assay: FIC index with sub-MIC OAK, E. coli N281; conditions: sub-MIC C12K-7α8
Procedure: as §1, §3

E. coli 14182 = assay: Antibiotic MIC / chemo-sensitization checkerboard with OAK, E. coli 14182
Procedure: as §1, §2, §3

E. coli 14384 = assay: Antibiotic MIC / chemo-sensitization checkerboard with OAK, E. coli 14384
Procedure: as §1, §2, §3

[4] = test system: E. coli AG100, wild type (efflux+); conditions: sub-MIC C12K-7α8
Procedure: as §1, §3

[5] = antibiotic combined with C12K-7α8

| SMILES | MIC (E. coli U-16329) [µg/mL] | MIC (E. coli U-16327) [µg/mL] | FIC [1] | FIC [2] | FIC [3] | Antibiotic MIC in presence of OAK (E. coli 14182; +1.7 μg/ml C12K-7α8 (¼ MIC)) [µg/mL] | Antibiotic MIC in presence of OAK (E. coli 14182; +3.5 μg/ml C12K-7α8 (½ MIC)) [µg/mL] | Antibiotic MIC in presence of OAK (E. coli 14182; +[…] C12K-7α8 (⅓ MIC)) [µg/mL] | Antibiotic MIC in presence of OAK (E. coli 14384; +1.7 μg/ml C12K-7α8 (¼ MIC)) [µg/mL] | Antibiotic MIC in presence of OAK (E. coli 14384; +3.5 μg/ml C12K-7α8 (½ MIC)) [µg/mL] | Antibiotic MIC in presence of OAK (E. coli 14384; +[…] C12K-7α8 (⅓ MIC)) [µg/mL] | Antibiotic MIC in presence of OAK (E. coli U-16329; +3.5 μg/ml C12K-7α8 (½ MIC)) [µg/mL] | Antibiotic MIC in presence of OAK (E. coli U-16329; +[…] C12K-7α8 (⅓ MIC)) [µg/mL] | Antibiotic MIC in presence of OAK (E. coli U-16327; +3.5 μg/ml C12K-7α8 (½ MIC)) [µg/mL] | Antibiotic MIC in presence of OAK (E. coli U-16327; +[…] C12K-7α8 (⅓ MIC)) [µg/mL] | FIC [4] | also measured |
| --- | --- | --- | --- | --- | --- | --- | --- | --- | --- | --- | --- | --- | --- | --- | --- | --- | --- |
| CC[C@H]1OC(=O)[C@H](C)[C@@H](O[C@H]2C[C@@](C)(OC)[C@@H](O)[C@H](C)O2)[C@H](C)[C@@H](O[C@@H]2O[C@H](C)C[C@H](N(C)C)[C@H]2O)[C@](C)(OC)C[C@@H](C)C(=O)[C@H](C)[C@@H](O)[C@]1(C)O [Clarithromycin, clarithromycin] | 128 | 128 | 0.75 | 0.56 | 1.0 |  |  |  |  |  |  |  |  |  |  |  |  |
| CC[C@H]1OC(=O)[C@H](C)[C@@H](O[C@H]2C[C@@](C)(OC)[C@@H](O)[C@H](C)O2)[C@H](C)[C@@H](O[C@@H]2O[C@H](C)C[C@H](N(C)C)[C@H]2O)[C@](C)(O)C[C@@H](C)C(=O)[C@H](C)[C@@H](O)[C@]1(C)O [Erythromycin, erythromycin] | 256 | 512 | 0.86 | 0.56 | 1.0 | 32 | 4 | 16 | 64 | 8 | 16 | 16 | 64 | 16 | 64 | 0.46 | FIC (E. coli 14182; [5]): 0.46; FIC (E. coli 14384; [5]): 0.39; FIC (E. coli U-16329; [5]): 0.56; FIC (E. coli U-16327; [5]): 0.46 |
| Cc1onc(-c2ccccc2)c1C(=O)N[C@@H]1C(=O)N2[C@@H]1SC(C)(C)[C@@H]2C(=O)O [Oxacillin, oxacillin] | > 512 | > 512 | 0.75 |  |  | >512 | >512 | >512 | >512 | >512 | >512 | 512 | >512 | 512 | >512 | 0.5 | MIC (E. coli 14182; Escherichia coli, OAK: None): > 512 µg/mL; MIC (E. coli 14384; Escherichia coli, OAK: None): > 512 µg/mL; Antibiotic MIC in presence of OAK (E. coli U-16329; +1.7 μg/ml C12K-7α8 (¼ MIC)): >512 µg/mL; Antibiotic MIC in presence of OAK (E. coli U-16327; +1.7 μg/ml C12K-7α8 (¼ MIC)): >512 µg/mL |
